# Results reported in patent US10131652B2, “Pyrimidinyloxy benzene derivatives as herbicides” (E. I. DU PONT DE NEMOURS AND COMPANY, priority 2014, dated 2018).
# Like-named read-outs stand apart in the source and are kept apart here.
# How the values were obtained:
# Assay in all cases: Test F pre-/postemergence plant response
# Type in all cases: in vivo
# [1] = system: johnsongrass (Sorghum halepense); conditions: Sorghum halepense, pre-emergence, scale 0 to 100, read-out: Plant response rating, Johnsongrass
# How it was run: (§1)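 Herbicidal effect judged by eye against controls, scored 0–100 (complete control = 100). Applications: pre-emergence onto seeded silt loam, post-emergence onto 2–18 cm seedlings; greenhouse, 14–21 days.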
# [2] = system: hairy beggarticks (Bidens pilosa); conditions: Bidens pilosa, scale 0 to 100, read-out: Plant response rating, Beggarticks
# How it was run: as §1
# [3] = system: waterhemp (common waterhemp, Amaranthus rudis); conditions: Amaranthus tuberculatus, scale 0 to 100, read-out: Plant response rating, Waterhemp
# How it was run: as §1
# [4] = system: giant foxtail (Setaria faberii); conditions: Setaria faberi, pre-emergence, scale 0 to 100, read-out: Plant response rating, Foxtail, Giant
# How it was run: as §1
# [5] = system: barnyardgrass (Echinochloa crus-galli); conditions: Echinochloa crus-galli, scale 0 to 100, read-out: Plant response rating, Barnyardgrass
# How it was run: as §1
# [6] = system: ragweed (common ragweed, Ambrosia elatior); conditions: Ambrosia artemisiifolia, pre-emergence, scale 0 to 100, read-out: Plant response rating, Ragweed
# How it was run: as §1
# [7] = system: dayflower (Virginia (VA) dayflower, Commelina virginica); conditions: Commelina virginica, scale 0 to 100, read-out: Plant response rating, Dayflower, VA
# How it was run: as §1
# [8] = system: field bindweed (Convolvulus arvensis); conditions: Convolvulus arvensis, scale 0 to 100, read-out: Plant response rating, Field Bindweed
# How it was run: as §1
# [9] = system: morningglory (Ipomoea coccinea); conditions: Ipomoea, pre-emergence, scale 0 to 100, read-out: Plant response rating, Morningglory
# How it was run: as §1
# [10] = system: velvetleaf (Abutilon theophrasti); conditions: Abutilon theophrasti, pre-emergence, scale 0 to 100, read-out: Plant response rating, Velvetleaf
# How it was run: as §1
# [11] = system: yellow nutsedge (Cyperus esculentus); conditions: Cyperus, pre-emergence, scale 0 to 100, read-out: Plant response rating, Nutsedge, Yellow
# How it was run: as §1
# [12] = post-emergence, 8 g ai/ha Postemergence
# [13] = post-emergence, 16 g ai/ha Postemergence
# [14] = post-emergence, 31 g ai/ha Postemergence
# [15] = post-emergence, 62 g ai/ha Postemergence
# [16] = post-emergence, 125 g ai/ha Postemergence
# [17] = pre-emergence, 8 g ai/ha Preemergence
# [18] = pre-emergence, 16 g ai/ha Preemergence
# [19] = pre-emergence, 31 g ai/ha Preemergence
# [20] = pre-emergence, 62 g ai/ha Preemergence
# [21] = pre-emergence, 125 g ai/ha Preemergence
structure (smiles),measurement,setting,value
"FC(F)(F)c1cc(-c2ccccc2Oc2ncc(Cl)cn2)no1 [Compound 200, 5-chloro-2-[2-[5-(trifluoromethyl)-3-isoxazolyl]phenoxy]pyrimidine]",pest or weed control at 8 g/ha,[1]; 8 g ai/ha Preemergence,0%
same,pest or weed control at 16 g/ha,[1]; 16 g ai/ha Preemergence,0%
same,pest or weed control at 31 g/ha,[1]; 31 g ai/ha Preemergence,5%
same,pest or weed control at 125 g/ha,[1]; 125 g ai/ha Preemergence,90%
same,pest or weed control at 62 g/ha,[1]; Preemergence,35%
same,pest or weed control at 8 g/ha,[2]; [12],0%
same,pest or weed control at 16 g/ha,[2]; [13],0%
same,pest or weed control at 31 g/ha,[2]; [14],5%
same,pest or weed control at 62 g/ha,[2]; [15],10%
same,pest or weed control at 125 g/ha,[2]; [16],10%
same,pest or weed control at 8 g/ha,[2]; [17],0%
same,pest or weed control at 16 g/ha,[2]; [18],0%
same,pest or weed control at 31 g/ha,[2]; [19],0%
same,pest or weed control at 62 g/ha,[2]; [20],0%
same,pest or weed control at 125 g/ha,[2]; [21],0%
same,pest or weed control at 8 g/ha,[3]; [12],75%
same,pest or weed control at 16 g/ha,[3]; [13],80%
same,pest or weed control at 31 g/ha,[3]; [14],95%
same,pest or weed control at 62 g/ha,[3]; [15],98%
same,pest or weed control at 125 g/ha,[3]; [16],100%
same,pest or weed control at 8 g/ha,[3]; [17],70%
same,pest or weed control at 16 g/ha,[3]; [18],98%
same,pest or weed control at 31 g/ha,[3]; [19],100%
same,pest or weed control at 125 g/ha,[3]; [21],100%
same,pest or weed control at 62 g/ha,"[3]; pre-emergence, Preemergence",100%
same,pest or weed control at 8 g/ha,[4]; 8 g ai/ha Preemergence,0%
same,pest or weed control at 16 g/ha,[4]; 16 g ai/ha Preemergence,35%
same,pest or weed control at 31 g/ha,[4]; 31 g ai/ha Preemergence,65%
same,pest or weed control at 62 g/ha,[4]; 62 g ai/ha Preemergence,100%
same,pest or weed control at 125 g/ha,[4]; 125 g ai/ha Preemergence,100%
same,pest or weed control at 8 g/ha,[5]; [12],0%
same,pest or weed control at 16 g/ha,[5]; [13],0%
same,pest or weed control at 31 g/ha,[5]; [14],0%
same,pest or weed control at 62 g/ha,[5]; [15],15%
same,pest or weed control at 125 g/ha,[5]; [16],25%
same,pest or weed control at 8 g/ha,[5]; [17],0%
same,pest or weed control at 16 g/ha,[5]; [18],0%
same,pest or weed control at 31 g/ha,[5]; [19],0%
same,pest or weed control at 62 g/ha,[5]; [20],30%
same,pest or weed control at 125 g/ha,[5]; [21],60%
same,pest or weed control at 8 g/ha,[6]; 8 g ai/ha Preemergence,0%
same,pest or weed control at 16 g/ha,[6]; 16 g ai/ha Preemergence,0%
same,pest or weed control at 31 g/ha,[6]; 31 g ai/ha Preemergence,10%
same,pest or weed control at 125 g/ha,[6]; 125 g ai/ha Preemergence,40%
same,pest or weed control at 62 g/ha,[6]; Preemergence,35%
same,pest or weed control at 8 g/ha,[7]; [12],0%
same,pest or weed control at 16 g/ha,[7]; [13],0%
same,pest or weed control at 31 g/ha,[7]; [14],25%
same,pest or weed control at 62 g/ha,[7]; [15],15%
same,pest or weed control at 125 g/ha,[7]; [16],35%
same,pest or weed control at 8 g/ha,[7]; [17],0%
same,pest or weed control at 16 g/ha,[7]; [18],15%
same,pest or weed control at 31 g/ha,[7]; [19],50%
same,pest or weed control at 62 g/ha,[7]; [20],70%
same,pest or weed control at 125 g/ha,[7]; [21],90%
same,pest or weed control at 8 g/ha,[8]; [12],20%
same,pest or weed control at 16 g/ha,[8]; [13],20%
same,pest or weed control at 31 g/ha,[8]; [14],35%
same,pest or weed control at 62 g/ha,[8]; [15],35%
same,pest or weed control at 125 g/ha,[8]; [16],35%
same,pest or weed control at 8 g/ha,[8]; [17],0%
same,pest or weed control at 16 g/ha,[8]; [18],0%
same,pest or weed control at 31 g/ha,[8]; [19],30%
same,pest or weed control at 62 g/ha,[8]; [20],30%
same,pest or weed control at 125 g/ha,[8]; [21],30%
same,pest or weed control at 8 g/ha,[9]; 8 g ai/ha Preemergence,0%
same,pest or weed control at 16 g/ha,[9]; 16 g ai/ha Preemergence,0%
same,pest or weed control at 31 g/ha,[9]; 31 g ai/ha Preemergence,0%
same,pest or weed control at 125 g/ha,[9]; 125 g ai/ha Preemergence,15%
same,pest or weed control at 62 g/ha,[9]; Preemergence,0%
same,pest or weed control at 8 g/ha,[10]; 8 g ai/ha Preemergence,0%
same,pest or weed control at 16 g/ha,[10]; 16 g ai/ha Preemergence,25%
same,pest or weed control at 31 g/ha,[10]; 31 g ai/ha Preemergence,80%
same,pest or weed control at 125 g/ha,[10]; 125 g ai/ha Preemergence,100%
same,pest or weed control at 62 g/ha,[10]; Preemergence,100%
same,pest or weed control at 8 g/ha,[11]; 8 g ai/ha Preemergence,0%
same,pest or weed control at 16 g/ha,[11]; 16 g ai/ha Preemergence,0%
same,pest or weed control at 31 g/ha,[11]; 31 g ai/ha Preemergence,0%
same,pest or weed control at 125 g/ha,[11]; 125 g ai/ha Preemergence,35%
same,pest or weed control at 62 g/ha,[11]; Preemergence,10%
